Test results taken from US5130327A, “Indole derivatives” (Consejo Superior de Investigaciones Cientificas, priority 1989, dated 1992).

Assays:
[1] = target: T1, Bovine Brain MAO B (Bos taurus, UniProt P56560); assay: In vitro inhibition of MAO from bovine brain mitochondria, tyramine as substrate (form B); type: biochemical; set-up: key to Bovine Brain MAO, mark printed in place of a B value (nonselective): ns = nonselective; details: for IC50: pI50 = -log [I50], molar, bovine brain mitochondria, tyramine as substrate; for Bovine Brain MAO, mark printed in place of a B value (nonselective): one pI50 given, no separate A and B values
T1 construct: in vitro activity of MAO from bovine brain mitochondria; from tissue; host or cells: bovine brain mitochondria
T1 sequence (P56560 1-520): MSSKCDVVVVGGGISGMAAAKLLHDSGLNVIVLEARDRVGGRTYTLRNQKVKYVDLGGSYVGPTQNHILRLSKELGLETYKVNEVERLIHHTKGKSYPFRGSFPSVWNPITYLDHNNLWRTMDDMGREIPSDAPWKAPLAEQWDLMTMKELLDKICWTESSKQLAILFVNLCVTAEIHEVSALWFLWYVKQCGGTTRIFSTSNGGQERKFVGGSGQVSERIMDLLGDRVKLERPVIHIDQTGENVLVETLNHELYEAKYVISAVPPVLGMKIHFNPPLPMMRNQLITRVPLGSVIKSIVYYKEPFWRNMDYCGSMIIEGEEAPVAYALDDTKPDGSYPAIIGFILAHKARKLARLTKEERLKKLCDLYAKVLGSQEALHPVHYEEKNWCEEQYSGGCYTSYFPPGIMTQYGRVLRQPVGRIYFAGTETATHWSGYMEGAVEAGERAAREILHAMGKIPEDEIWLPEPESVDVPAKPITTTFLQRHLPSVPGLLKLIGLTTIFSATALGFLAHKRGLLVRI
From the text: (§1) The following table illustrates the structure of particular compounds of the invention (1). It also gives specific pI50 values where pI50 =-log [I50 ] where [I50 ] is the molar concentration of test compound which inhibits 50% of the in vitro activity of MAO from bovine brain mitochondria using tyramine as substrate.

[2] = target: T2, Bovine Brain MAO A (Bos taurus, UniProt P21398); assay: In vitro inhibition of MAO from bovine brain mitochondria, tyramine as substrate (form A); type: biochemical; details: pI50 = -log [I50], molar
T2 construct: in vitro activity of MAO from bovine brain mitochondria; from tissue; host or cells: bovine brain mitochondria
T2 sequence (P21398 1-527): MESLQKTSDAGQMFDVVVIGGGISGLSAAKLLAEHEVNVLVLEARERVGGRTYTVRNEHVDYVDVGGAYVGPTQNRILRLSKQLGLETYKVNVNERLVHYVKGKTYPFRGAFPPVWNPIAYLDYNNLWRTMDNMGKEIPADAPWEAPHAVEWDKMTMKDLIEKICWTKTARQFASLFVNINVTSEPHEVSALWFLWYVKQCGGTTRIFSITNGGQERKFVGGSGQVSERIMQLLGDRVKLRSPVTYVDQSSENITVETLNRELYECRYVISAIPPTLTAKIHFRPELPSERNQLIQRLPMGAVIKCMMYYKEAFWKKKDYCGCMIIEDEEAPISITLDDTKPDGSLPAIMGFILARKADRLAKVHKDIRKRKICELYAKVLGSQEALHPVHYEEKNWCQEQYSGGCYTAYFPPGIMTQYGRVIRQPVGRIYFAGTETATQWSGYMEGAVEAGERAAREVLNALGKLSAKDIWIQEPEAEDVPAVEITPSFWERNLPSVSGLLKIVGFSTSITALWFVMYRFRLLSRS
From the text: as §1

[3] = Behavioural Despair (Porsolt's test); type: in vivo; details: acute treatment; read-out: Porsolt's test MED, acute
Protocol: The pharmacological profile was carried out assessing the antidepressant activity with the following tests:
Behavioural Despair (Porsolt et al. Arch. Int. Pharmacodyn; 229:327-336, 1977),

[4] = Interaction with salbutamol-induced hypoactivity; type: in vivo
From the text: (§2) The action mechanism was studied in acute and chronic treatments on the interaction response with clonidine, salbutamol (Richard, J. Intern. J. Neuroscience, 9:17-19, 1979) and tetrabenazine (Pletscher, A.: An. N.Y. Aca. Sci. 80:1039-1045, 1959), and the response to the potentiation with L-dopa, L-tryptophan, tryptamine (Jalfre, M. et al., Arch. Int. Pharmacodyn, 159:194-221, 1982) and β-phenylethylamine (Ortmann, et al, Psychopharmacol. 84:22-27, 1984).

[5] = Secondary effects on the cardiovascular system; details: in vivo
Protocol: (§3) The secondary effects were studied mainly on the cardiovascular system, and the effects on the arterial pressure, heart rate and rhythm, P-R interval and isolated organ (rabbit aortic rings and isolated atria), were evaluated both after acute and chronic treatments. In the same way, the "cheese effect" was studied by means of the tyramine potentiation.

[6] = Interaction with clonidine-induced hypoactivity; type: in vivo
From the text: as §2

[7] = test system: rat cerebral MAO A and B; assay: MAO inhibitory activity at the biochemical level (reversibility and selectivity)
From the text: To determine MAO inhibitory activity at the biochemical level the following tests are used:
1. "In vitro inhibition" of rat cerebral MAO A and B giving I50 values for the two forms of the enzyme. Male Wistar rats (200 g) were used. Brains were obtained by decapitation and were homogenized. As substrates of the enzymes ^14 C-5-hydroxytryptamine oxalate 54 mCi/mmol and ^14 C-β-phenylethylamine were used. The residual enzymatic activities were referred to the activities in absence of MAO inhibitor (100%).
2. "Ex vivo inhibition" of rat cerebral MAO A and B after single dosing.
This gives the degree of inhibition in vivo of both forms of the enzyme and variation of this inhibition with time after treatment with a single dose. The compounds were administered intraperitoneally to male Wistar rats (175 g.) at a dose of 5 mg/kg in 1 ml/kg (H2 O). Animals were sacrificed by decapitation 24 h. and 7 days after treatment and brains were removed and homogenized. Enzymatic activities determined in treated animals, were compared with the activities in control animals (100%).
3. "Ex vivo" inhibition of rat cerebral MAO A and B after repeated dosing.
Male Wistar rats (175 g) were used.
The compounds were administered once daily intraperitonally for 7 days at a dose of 0.5 and 1 mg/kg in 1 ml/kg […]. […]

[8] = Potentiation of β-phenylethylamine; type: in vivo; details: in vivo
From the text: as §2

[9] = test system: cerebral β-adrenergic receptors; assay: Effects of chronic treatment on β receptors; type: in vivo; details: chronic administration in the rat
Protocol: Effects of chronic treatment on α2 -, β- and 5-HT2 receptors. The test compounds, at a dose of 10 mg/kg/day i.p., were administered for 21 days to Wistar male rats (250±2.4 g). After treatment the animals were killed, brains were dissected and cortices were scraped from the dorsal surface of the […]. ^3 H UK 14304, ^3 H Dihydroalprenalol and ^3 H Ketanserin were used as ligands in the binding studies.

[10] = "Cheese effect" by tyramine potentiation; details: in vivo
Protocol: as §3

[11] = test system: reuptake of noradrenaline; assay: Reuptake of noradrenaline in vitro, crude synaptosomal preparation; type: biochemical, rat
Protocol: Influence on the reuptake of monoamines "in vitro" was also studied. The effect of the compounds on the reuptake of 5-HT noradrenaline and dopamine was studied using Wistar male rats (350±2.5 g). They were kept under controlled light and temperature conditions and fed "ad libitum" until killed. The animals were killed by decapitation and brains were frozen and stored at -20° C. prior to analysis. Brains were dissected on an ice-filled petri dish. The cortices for 5-HT and noradrenaline assay and striatum (including caudate nucleus, putamen and globus pallidus) for dopamine assay were immediately weighed and homogenized. The standard incubation medium contained: 1.7 μM ^14 C-5-HT); 0.5μM ^3 H-noradrenaline or 1 μM ^3 H-dopamine with 0.1 ml of the crude synaptosomal preparation. All drugs used in the study were dissolved in the incubation medium in a concentration range 10^-4 to 10^-8 M and were preincubated with the crude synaptosomal preparation obtained from the treated brains, for 5 min. at 37° C. or 0° C. before the addition of the labelled substrate.

[12] = Potentiation of 5-HT; type: in vivo; details: in vivo
[13] = test system: rat uterus; details: Arch. Int. Pharmacodyn. 1961, 133, 138-158; cited from earlier work

SMILES	IC50 [1] [nM]	IC50 [2] [nM]	Bovine Brain MAO, mark printed in place of a B value (nonselective) [1]	further results
CC#CCNCc1cc2cc(OC)ccc2[nH]1 [(d), N-(2-butynyl)-2-(5-methoxy-indolyl)methylamine]	> 331000	631		
CC#CCN(C)Cc1cc2cc(OC)ccc2n1C [(o), N-(2-butynyl)-N-methyl-2-(1-methyl-5-methoxy-indolyl)methylamine]		35.5	ns	
CC#CCN(CC#CC)Cc1cc2cc(OC)ccc2n1C [(n), N,N-bis(2-butynyl)-2-(1-methyl-5-methoxy-indolyl)methylamine]	> 501000	3980		
CC#CCN(CC#CC)Cc1cc2cc(OC)ccc2[nH]1 [(e), N,N-bis(2-butynyl)-2-(5-methoxy-indolyl)methylamine]	> 20000	≥ 20000		
C=C=CCNCc1cc2cc(OC)ccc2[nH]1 [(g), N-(2,3-butadienyl)-2-(5-methoxy-indolyl)methylamine]	2510	44.7		
C=C=CCN(CC=C=C)Cc1cc2cc(OC)ccc2[nH]1 [(h), N,N-bis(2,3-butadienyl)-2-(5-methoxy-indolyl)methylamine]		447	ns	
COc1ccc2c(c1)cc(CN)n2C [(u), 2-(1-methyl-5-methoxy-indolyl)methylamine]		18200	ns	
COc1ccc2[nH]c(CN)cc2c1 [(s), 2-(5-methoxy-indolyl)methylamine]		50100	ns	minimal effective dose [3]: 25 mg/kg; Hypoactivity induced by salbutamol, acute ([4]; acute treatment): does not do so; Hypoactivity induced by salbutamol, chronic ([4]; chronic treatment (10.2 mg/kg)): counteracts; Cardiovascular effects [5]: does not produce any significant cardiovascular effects; Clonidine-induced hypoactivity, acute ([6]; acute (10.2 mg/kg)): no action; Clonidine-induced hypoactivity, chronic ([6]; chronic treatment (10.2 mg/kg) during 5 days): no action; Type of MAO inhibition (reversibility, selectivity) [7]: reversible and mixed inhibitor of MAO; Activity in test of potentiation of β-phenylethylamine [8]: inactive; Number or affinity of cerebral β-adrenergic receptors [9]: does not modify; "Cheese effect" [10]: no "cheese effect"; Effect on the reuptake of noradrenaline [11]: does not affect; Activity in test of potentiation of 5-HT [12]: inactive
C#CCNCc1cc2cc(OC)ccc2[nH]1 [(a), N-propargyl-2-(5-methoxy-indolyl)methylamine]	110000	219		
C#CCN(CC#C)Cc1cc2cc(OC)ccc2n1C [(k), N,N-bis(propargyl)-2-(1-methyl-5-methoxy-indolyl)methylamine]		2820	ns	
CNCc1cc2cc(OC)ccc2[nH]1 [(t), N-methyl-2-(5-methoxy-indolyl)methylamine]	> 100000	≥ 100000		Antagonistic activity on the rat uterus [13]: a weak unspecific antagonistic activity
CNCc1cc2cc(OC)ccc2n1C [(v), N-methyl-2-(1-methyl-5-methoxy-indolyl)methylamine]		129000	ns	
CC#CCNCc1cc2cc(OC)ccc2n1C [(m), N-(2-butynyl)-2-(1-methyl-5-methoxy-indolyl)methylamine]	79400	129		
C=C=CCN(CC=C=C)Cc1cc2cc(OC)ccc2n1C [(q), N,N-bis(2,3-butadienyl)-2-(1-methyl-5-methoxy-indolyl)methylamine]		302	ns	

Stronger by IC50 [2], values ahead:

IC50 [1] [nM]	IC50 [2] [nM]	Bovine Brain MAO, mark printed in place of a B value (nonselective) [1]	SMILES	further results
398	21.9		C=C=CCNCc1cc2cc(OC)ccc2n1C [(p), N-(2,3-butadienyl)-2-(1-methyl-5-methoxy-indolyl)methylamine]	
44700	20.9		C#CCNCc1cc2cc(OC)ccc2n1C [(j), N-propargyl-2-(1-methyl-5-methoxy-indolyl)methylamine]	
5010	17.8		C=C=CCN(C)Cc1cc2cc(OC)ccc2[nH]1 [(i), N-(2,3-butadienyl)-N-methyl-2-(5-methoxy-indolyl)methylamine]	
12900	8.91		CC#CCN(C)Cc1cc2cc(OC)ccc2[nH]1 [(f), N-(2-butynyl)-N-methyl-2-(5-methoxy-indolyl)methylamine]	
447	7.08		C#CCN(C)Cc1cc2cc(OC)ccc2[nH]1 [(c), N-methyl-N-propargyl-2-(5-methoxy-indolyl)methylamine]	
501	5.37		C=C=CCN(C)Cc1cc2cc(OC)ccc2n1C [(r), N-(2,3-butadienyl)-N-methyl-2-(1-methyl-5-methoxy-indolyl)-methylamine]	
